Common to all, as to format: cell-based
Assay [1] has as its system IL-2 secretion from T cells in human whole blood. As to conditions: read-out: WB (IL-2) IC50 (nM, Avg).
The target of another assay is hKv1.3 (Homo sapiens, UniProt P22001). Kind of assay: cell-based. As to conditions: Kv1.3 (IWQ) IC50 (nM, Avg).
Assay [2] relates to IFN-g secretion from T cells in human whole blood. As to conditions: read-out: WB (IFNg) IC50 (nM, Avg).

Chain of hKv1.3 (P22001 whole entry): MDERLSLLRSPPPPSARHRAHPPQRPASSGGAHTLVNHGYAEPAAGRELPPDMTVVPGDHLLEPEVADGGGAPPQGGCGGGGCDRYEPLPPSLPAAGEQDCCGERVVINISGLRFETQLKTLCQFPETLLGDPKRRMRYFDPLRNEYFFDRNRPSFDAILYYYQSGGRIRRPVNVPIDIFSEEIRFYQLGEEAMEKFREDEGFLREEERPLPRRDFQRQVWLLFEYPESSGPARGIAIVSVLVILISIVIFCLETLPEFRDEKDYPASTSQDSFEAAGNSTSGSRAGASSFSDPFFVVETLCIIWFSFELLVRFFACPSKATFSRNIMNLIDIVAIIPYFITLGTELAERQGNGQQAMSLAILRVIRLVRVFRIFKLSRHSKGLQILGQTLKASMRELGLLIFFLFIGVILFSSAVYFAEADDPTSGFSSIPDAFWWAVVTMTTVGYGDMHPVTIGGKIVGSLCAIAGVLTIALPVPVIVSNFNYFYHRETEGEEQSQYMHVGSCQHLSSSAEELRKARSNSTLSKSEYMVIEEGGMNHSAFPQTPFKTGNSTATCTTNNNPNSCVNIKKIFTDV

In general, IC50 refers to the concentration that gives 50% inhibition. `CC[C@H](C)[C@@H]1NC(=O)[C@@H](NC(=O)[C@H](CO)NC(=O)[C@@H](N)CCCNC(=N)N)CSSC[C@@H](C(N)=O)NC(=O)[C@H]([C@@H](C)O)NC(=O)CNC(=O)[C@@H]2CSSC[C@@H]3NC(=O)[C@H](CCCCN)NC(=O)[C@H](Cc4ccccc4)NC(=O)[C@H](C)NC(=O)[C@H]([C@@H](C)O)NC(=O)[C@H](CSSC[C@H](NC(=O)[C@H](Cc4ccccc4)NC(=O)[C@H](CO)NC(=O)[C@H](CC(C)C)NC(=O)[C@H](CCCNC(=N)N)NC(=O)[C@H](Cc4ccc(O)cc4)NC(=O)[C@H](CCCCN)NC(=O)[C@H](Cc4ccc(O)cc4)NC(=O)[C@H](CO)NC(=O)[C@H](Cc4c[nH]cn4)NC(=O)[C@H](CCCCN)NC3=O)C(=O)N[C@@H](CCCNC(=N)N)C(=O)N[C@@H](CCCCN)C(=O)N[C@@H]([C@@H](C)O)C(=O)N2)NC(=O)[C@H](CCCNC(=N)N)NC(=O)[C@H](CO)NC(=O)[C@H](CCCCN)NC(=O)[C@@H]2CCCN2C(=O)[C@H]([C@@H](C)CC)NC(=O)[C@H]([C@@H](C)O)NC(=O)[C@H](CC(=O)O)NC1=O` [[Lys16, Tyr21]ShK-amide]: the IC50 in assay [1] was determined as 2.83 nM; on hKv1.3, 0.246 nM; in assay [2] it was 3.19 nM.

Consider `CC[C@H](C)[C@@H]1NC(=O)[C@@H](NC(=O)[C@H](CO)NC(=O)[C@@H](N)CCCNC(=N)N)CSSC[C@@H](C(N)=O)NC(=O)[C@H]([C@@H](C)O)NC(=O)CNC(=O)[C@@H]2CSSC[C@@H]3NC(=O)[C@H](CCCCN)NC(=O)[C@H](Cc4ccccc4)NC(=O)[C@H](C)NC(=O)[C@H]([C@@H](C)O)NC(=O)[C@H](CSSC[C@H](NC(=O)[C@H](Cc4ccccc4)NC(=O)[C@H](CO)NC(=O)[C@H](CC(C)C)NC(=O)[C@H](CCCNC(=N)N)NC(=O)[C@H](Cc4ccc(O)cc4)NC(=O)[C@H](CCCCN)NC(=O)[C@H](C(C)C)NC(=O)[C@H](CO)NC(=O)[C@H](Cc4c[nH]cn4)NC(=O)[C@H](CCCCN)NC3=O)C(=O)N[C@@H](CCCNC(=N)N)C(=O)N[C@@H](CCCCN)C(=O)N[C@@H]([C@@H](C)O)C(=O)N2)NC(=O)[C@H](CCCNC(=N)N)NC(=O)[C@H](CO)NC(=O)[C@H](CCCCN)NC(=O)[C@@H]2CCCN2C(=O)[C@H]([C@@H](C)CC)NC(=O)[C@H]([C@@H](C)O)NC(=O)[C@H](CC(=O)O)NC1=O` [[Lys16, VaI21]ShK-amide], for which the IC50 came out at 4.8 nM in assay [1], 0.344 nM against hKv1.3 and 6.65 nM in assay [2].

For the molecule `CC[C@H](C)[C@@H]1NC(=O)[C@@H](NC(=O)[C@H](CO)NC(=O)[C@@H](N)CCCNC(=N)N)CSSC[C@@H](C(=O)O)NC(=O)[C@H]([C@@H](C)O)NC(=O)CNC(=O)[C@@H]2CSSC[C@@H]3NC(=O)[C@H](CCCCN)NC(=O)[C@H](Cc4ccccc4)NC(=O)[C@H](C)NC(=O)[C@H]([C@@H](C)O)NC(=O)[C@H](CSSC[C@H](NC(=O)[C@H](Cc4ccccc4)NC(=O)[C@H](CO)NC(=O)[C@H](CC(C)C)NC(=O)[C@H](CCCNC(=N)N)NC(=O)[C@H](Cc4ccc(O)cc4)NC(=O)[C@H](CCCCN)NC(=O)[C@H](C)NC(=O)[C@H](CO)NC(=O)[C@H](Cc4c[nH]cn4)NC(=O)[C@H](CCCCN)NC3=O)C(=O)N[C@@H](CCCNC(=N)N)C(=O)N[C@@H](CCCCN)C(=O)N[C@@H]([C@@H](C)O)C(=O)N2)NC(=O)[C@H](CCCNC(=N)N)NC(=O)[C@H](CO)NC(=O)[C@H](CCCCN)NC(=O)[C@@H]2CCCN2C(=O)[C@H]([C@@H](C)CC)NC(=O)[C@H]([C@@H](C)O)NC(=O)[C@H](CC(=O)O)NC1=O` [[Lys16,A1a21]ShK], the IC50 in assay [1] came out at 0.872 nM; against hKv1.3 it was 0.076 nM; in assay [2] it was 1.33 nM.

For the molecule `CC[C@H](C)[C@@H]1NC(=O)[C@@H](NC(=O)[C@H](CO)NC(=O)[C@@H](N)CCCNC(=N)N)CSSC[C@@H](C(=O)O)NC(=O)[C@H]([C@@H](C)O)NC(=O)CNC(=O)[C@@H]2CSSC[C@@H]3NC(=O)[C@H](CCCCN)NC(=O)[C@H](Cc4ccccc4)NC(=O)[C@H](C)NC(=O)[C@H]([C@@H](C)O)NC(=O)[C@H](CSSC[C@H](NC(=O)[C@H](Cc4ccccc4)NC(=O)[C@H](CO)NC(=O)[C@H](CC(C)C)NC(=O)[C@H](CCCNC(=N)N)NC(=O)[C@H](Cc4ccc(O)cc4)NC(=O)[C@H](CCCCN)NC(=O)[C@H](CCSC)NC(=O)[C@H](CO)NC(=O)[C@H](Cc4c[nH]cn4)NC(=O)[C@H](CCCNC(=N)N)NC3=O)C(=O)N[C@@H](CCCNC(=N)N)C(=O)N[C@@H](CCCCN)C(=O)N[C@@H]([C@@H](C)O)C(=O)N2)NC(=O)[C@H](CCCNC(=N)N)NC(=O)[C@H](CO)NC(=O)[C@H](CCCCN)NC(=O)[C@@H]2CCCN2C(=O)[C@H]([C@@H](C)CC)NC(=O)[C@H]([C@@H](C)O)NC(=O)[C@H](CC(=O)O)NC1=O` [[Lys16,Arg18]ShK], the results for the IC50 (in assay [1]; on hKv1.3; in assay [2]) were 0.077 nM, 0.425 nM and 0.097 nM, respectively.

As for `CC[C@H](C)[C@@H]1NC(=O)[C@@H](NC(=O)[C@H](CO)NC(=O)[C@@H](N)CCCNC(=N)N)CSSC[C@@H](C(N)=O)NC(=O)[C@H]([C@@H](C)O)NC(=O)CNC(=O)[C@@H]2CSSC[C@@H]3NC(=O)[C@H](CCCCN)NC(=O)[C@H](Cc4ccccc4)NC(=O)[C@H](C)NC(=O)[C@H]([C@@H](C)O)NC(=O)[C@H](CSSC[C@H](NC(=O)[C@H](Cc4ccccc4)NC(=O)[C@H](CO)NC(=O)[C@H](CC(C)C)NC(=O)[C@H](CCCNC(=N)N)NC(=O)[C@H](Cc4ccc(O)cc4)NC(=O)[C@H](CCCCN)NC(=O)[C@H](CCSC)NC(=O)[C@H](CO)NC(=O)[C@H](Cc4c[nH]cn4)NC(=O)[C@H](CCCCN)NC3=O)C(=O)N[C@@H](CCCNC(=N)N)C(=O)N[C@@H](CCCNC(=N)N)C(=O)N[C@@H]([C@@H](C)O)C(=O)N2)NC(=O)[C@H](CCCNC(=N)N)NC(=O)[C@H](CO)NC(=O)[C@H](CCCCN)NC(=O)[C@@H]2CCCN2C(=O)[C@H]([C@@H](C)CC)NC(=O)[C@H]([C@@H](C)O)NC(=O)[C@H](CC(=O)O)NC1=O` [[Lys16,Arg30]ShK-amide], the IC50 in assay [1] worked out at 0.151 nM; on hKv1.3, 0.129 nM; in assay [2] it was 0.236 nM.

Consider `CC[C@H](C)[C@@H]1NC(=O)[C@@H](NC(=O)[C@H](CO)NC(=O)[C@@H](N)CCCNC(=N)N)CSSC[C@@H](C(=O)N[C@@H](C)C(=O)O)NC(=O)[C@H]([C@@H](C)O)NC(=O)CNC(=O)[C@@H]2CSSC[C@@H]3NC(=O)[C@H](CCCCN)NC(=O)[C@H](Cc4ccccc4)NC(=O)[C@H](C)NC(=O)[C@H]([C@@H](C)O)NC(=O)[C@H](CSSC[C@H](NC(=O)[C@H](Cc4ccccc4)NC(=O)[C@H](CO)NC(=O)[C@H](CC(C)C)NC(=O)[C@H](CCCNC(=N)N)NC(=O)[C@H](Cc4ccc(O)cc4)NC(=O)[C@H](CCCCN)NC(=O)[C@H](CC(N)=O)NC(=O)[C@H](CO)NC(=O)[C@H](Cc4c[nH]cn4)NC(=O)[C@H](CCCCN)NC3=O)C(=O)N[C@@H](CCCNC(=N)N)C(=O)N[C@@H](CCCCN)C(=O)N[C@@H]([C@@H](C)O)C(=O)N2)NC(=O)[C@H](CCCNC(=N)N)NC(=O)[C@H](CO)NC(=O)[C@H](CCCCN)NC(=O)[C@@H]2CCCN2C(=O)[C@H]([C@@H](C)CC)NC(=O)[C@H]([C@@H](C)O)NC(=O)[C@H](CC(=O)O)NC1=O` [[Lys16,Asn21]ShK-Ala], for which the IC50 in assay [1] turned out to be 0.891 nM; against hKv1.3, 33 nM; in assay [2], 0.693 nM.

Regarding `CC[C@H](C)[C@@H]1NC(=O)[C@@H](NC(=O)[C@H](CO)NC(=O)[C@@H](N)CCCNC(=N)N)CSSC[C@@H](C(=O)N[C@@H](C)C(=O)O)NC(=O)[C@H]([C@@H](C)O)NC(=O)CNC(=O)[C@@H]2CSSC[C@@H]3NC(=O)[C@H](CCCCN)NC(=O)[C@H](Cc4ccccc4)NC(=O)[C@H](C)NC(=O)[C@H]([C@@H](C)O)NC(=O)[C@H](CSSC[C@H](NC(=O)[C@H](Cc4ccccc4)NC(=O)[C@H](CO)NC(=O)[C@H](CC(C)C)NC(=O)[C@H](CCCNC(=N)N)NC(=O)[C@H](Cc4ccc(O)cc4)NC(=O)[C@H](CCCCN)NC(=O)[C@H](CCC(N)=O)NC(=O)[C@H](CO)NC(=O)[C@H](Cc4c[nH]cn4)NC(=O)[C@H](CCCCN)NC3=O)C(=O)N[C@@H](CCCNC(=N)N)C(=O)N[C@@H](CCCCN)C(=O)N[C@@H]([C@@H](C)O)C(=O)N2)NC(=O)[C@H](CCCNC(=N)N)NC(=O)[C@H](CO)NC(=O)[C@H](CCCCN)NC(=O)[C@@H]2CCCN2C(=O)[C@H]([C@@H](C)CC)NC(=O)[C@H]([C@@H](C)O)NC(=O)[C@H](CC(=O)O)NC1=O` [[Lys16,Gln21]ShK-Ala], the IC50 in assay [1] stood at 0.168 nM; against hKv1.3, 4.01 nM; in assay [2], 0.206 nM.

In the case of `CCCC[C@@H]1NC(=O)[C@H](CO)NC(=O)[C@H](Cc2c[nH]cn2)NC(=O)[C@H](CCC(=O)O)NC(=O)[C@@H]2CSSC[C@@H]3NC(=O)[C@H]([C@@H](C)O)NC(=O)[C@H](CCCCN)NC(=O)[C@H](CCCNC(=N)N)NC(=O)[C@H](CSSC[C@H](NC(=O)[C@H](CCCNC(=N)N)NC(=O)[C@H](CO)NC(=O)[C@H](CCCCN)NC(=O)[C@@H]4CCCN4C(=O)[C@H]([C@@H](C)CC)NC(=O)[C@H]([C@@H](C)O)NC(=O)[C@H](CC(=O)O)NC(=O)[C@H]([C@@H](C)CC)NC(=O)[C@@H](NC(=O)[C@H](CO)NC(=O)[C@@H](N)CCCNC(=N)N)CSSC[C@@H](C(N)=O)NC(=O)[C@H]([C@@H](C)O)NC(=O)CNC3=O)C(=O)N[C@@H]([C@@H](C)O)C(=O)N[C@@H](C)C(=O)N[C@@H](Cc3ccccc3)C(=O)N[C@@H](CCCCN)C(=O)N2)NC(=O)[C@H](Cc2ccccc2)NC(=O)[C@H](CO)NC(=O)[C@H](CC(C)C)NC(=O)[C@H](CCCNC(=N)N)NC(=O)[C@H](Cc2ccc(O)cc2)NC(=O)[C@H](CCCCN)NC1=O` [[Lys16,Glu18,Nle21]ShK-amide], the IC50 in assay [1] stood at 0.477 nM; on hKv1.3, 0.28 nM; in assay [2], 0.929 nM.

Source of the values: US20120121591A1 (priority 2009, published 2012).
